Measured values reported in ChEMBL document CHEMBL3112506, “Synthesis and structure-activity relationship studies of 4-((2-hydroxy-3-methoxybenzyl)amino)benzenesulfonamide derivatives as potent and selective inhibitors of 12-lipoxygenase” (J Med Chem, 2014).
Active and inactive are the calls of the source. No cut-off for these calls is given here.

Experiments:
[1] = target: T1, Polyunsaturated fatty acid lipoxygenase ALOX15 (Homo sapiens, UniProt P16050)
T1 sequence (P16050 whole entry): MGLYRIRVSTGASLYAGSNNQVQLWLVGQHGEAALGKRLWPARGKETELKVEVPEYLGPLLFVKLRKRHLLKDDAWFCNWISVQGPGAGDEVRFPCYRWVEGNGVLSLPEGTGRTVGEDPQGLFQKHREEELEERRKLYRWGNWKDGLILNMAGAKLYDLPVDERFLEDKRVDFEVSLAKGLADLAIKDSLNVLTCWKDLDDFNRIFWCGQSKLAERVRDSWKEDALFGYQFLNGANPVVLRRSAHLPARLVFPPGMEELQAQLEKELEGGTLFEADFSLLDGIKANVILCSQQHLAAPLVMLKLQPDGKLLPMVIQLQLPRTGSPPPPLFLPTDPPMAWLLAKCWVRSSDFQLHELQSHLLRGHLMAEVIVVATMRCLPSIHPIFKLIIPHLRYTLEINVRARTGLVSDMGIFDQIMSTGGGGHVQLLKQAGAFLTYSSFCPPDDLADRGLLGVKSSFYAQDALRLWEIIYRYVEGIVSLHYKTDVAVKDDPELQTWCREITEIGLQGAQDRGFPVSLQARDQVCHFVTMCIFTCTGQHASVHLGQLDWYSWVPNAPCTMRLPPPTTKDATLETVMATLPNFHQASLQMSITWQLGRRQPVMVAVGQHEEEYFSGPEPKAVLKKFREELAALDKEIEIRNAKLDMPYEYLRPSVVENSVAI

Rattus norvegicus = organism: Rattus norvegicus; assay: Metabolic stability in rat assessed as glucuronidation; format: ADME, organism-based; settings: in vitro
[2] = target: Cyclooxygenase (Homo sapiens) (UniProt P35354+P23219); assay: Inhibition of COX1/COX2 (unknown origin) using arachidonic acid as substrate assessed as consumption of oxygen preincubated for 5 mins followed by substrate addition at 15 uM; format: protein assay
[3] = target: T2, Polyunsaturated fatty acid lipoxygenase ALOX12 (Homo sapiens, UniProt P18054)
T2 sequence (P18054 whole entry): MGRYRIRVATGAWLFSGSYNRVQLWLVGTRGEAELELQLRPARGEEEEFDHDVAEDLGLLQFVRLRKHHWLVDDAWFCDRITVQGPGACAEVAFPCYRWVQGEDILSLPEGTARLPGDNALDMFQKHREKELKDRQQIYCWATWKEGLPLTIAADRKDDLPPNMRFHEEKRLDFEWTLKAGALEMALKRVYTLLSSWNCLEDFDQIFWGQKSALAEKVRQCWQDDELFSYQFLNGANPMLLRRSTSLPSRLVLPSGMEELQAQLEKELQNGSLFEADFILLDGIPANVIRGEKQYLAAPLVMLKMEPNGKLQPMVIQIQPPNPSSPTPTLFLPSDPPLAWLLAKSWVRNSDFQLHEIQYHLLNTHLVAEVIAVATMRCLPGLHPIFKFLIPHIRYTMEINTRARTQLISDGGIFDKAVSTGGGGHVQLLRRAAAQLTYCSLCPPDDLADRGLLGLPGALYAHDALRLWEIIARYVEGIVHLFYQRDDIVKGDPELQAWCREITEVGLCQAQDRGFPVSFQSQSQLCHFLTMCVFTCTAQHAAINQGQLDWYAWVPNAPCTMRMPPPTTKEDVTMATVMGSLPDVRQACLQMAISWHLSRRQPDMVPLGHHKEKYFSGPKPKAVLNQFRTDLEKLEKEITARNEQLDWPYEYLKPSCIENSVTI

[4] = target: T3, Polyunsaturated fatty acid lipoxygenase ALOX12 (Mus musculus) (UniProt P39655); assay: Inhibition of 12-LOX in mouse BTC3 cells assessed as inhibition of arachidonic acid/calcium ionophore-induced 12-HETE production after 4 hrs by ELISA; format: cell-based
T3 sequence (whole entry): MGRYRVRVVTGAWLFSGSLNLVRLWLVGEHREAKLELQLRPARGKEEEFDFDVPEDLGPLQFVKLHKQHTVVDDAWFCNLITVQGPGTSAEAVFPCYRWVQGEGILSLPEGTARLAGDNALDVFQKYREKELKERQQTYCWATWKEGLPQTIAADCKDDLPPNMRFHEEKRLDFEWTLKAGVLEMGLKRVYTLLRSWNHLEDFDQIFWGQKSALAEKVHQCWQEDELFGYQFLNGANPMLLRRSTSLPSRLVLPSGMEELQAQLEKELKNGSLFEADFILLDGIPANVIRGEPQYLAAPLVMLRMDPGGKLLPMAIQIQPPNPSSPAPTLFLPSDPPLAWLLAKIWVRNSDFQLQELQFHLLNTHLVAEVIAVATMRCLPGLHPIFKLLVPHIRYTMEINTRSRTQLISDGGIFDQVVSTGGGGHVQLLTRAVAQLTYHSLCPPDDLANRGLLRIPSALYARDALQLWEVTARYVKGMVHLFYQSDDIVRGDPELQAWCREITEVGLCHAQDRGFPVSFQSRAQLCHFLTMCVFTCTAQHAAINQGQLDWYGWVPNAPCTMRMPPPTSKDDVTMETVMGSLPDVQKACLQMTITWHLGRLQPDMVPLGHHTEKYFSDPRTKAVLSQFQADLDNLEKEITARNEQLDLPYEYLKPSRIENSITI

[5] = Stability of the compound in PBS buffer at pH 7.4 measured at 48 hrs; format: physicochemical; settings: read-out: Stability
Liver microsome = assay: Metabolic stability in rat liver microsomes measured over 1 hr in absence of NADPH; format: ADME
[6] = Metabolic stability in mouse liver microsomes measured over 1 hr in absence of NADPH; format: ADME, Microsome
[7] = Metabolic stability in mouse plasma assessed as compound remaining measured at 2 hrs; format: ADME, cell-free; settings: read-out: Stability
[8] = Aqueous solubility of the compound in PBS buffer at pH 7.4 by chemiluminescent nitrogen detection method; format: physicochemical
[9] = Stability of the compound in aqueous buffer at pH 2 to 9; format: physicochemical
[10] = Stability of the compound in presence of glutathione; format: ADME
Mus musculus [11] = assay: Cmax in CD-1 mouse at 30 mg/kg, po; format: ADME, organism-based; set-up: dose 30 mg/kg, route oral; settings: in vivo
Mus musculus [12] = assay: AUC (infinity) in CD-1 mouse at 3 mg/kg, iv; format: ADME, organism-based, Plasma; set-up: dose 3 mg/kg, route intravenous, time infinity; settings: in vivo
[13] = Stability of the compound in HEPES buffer at pH 7.3; format: physicochemical
Mus musculus [14] = assay: AUC (infinity) in CD-1 mouse at 30 mg/kg, po; format: ADME, organism-based, Plasma; set-up: time infinity, dose 30 mg/kg, route oral; settings: in vivo
Mus musculus [15] = assay: Volume of distribution in CD-1 mouse at 3 mg/kg, iv; format: ADME, organism-based; set-up: dose 3 mg/kg, route intravenous; settings: in vivo
[16] = Aqueous solubility of the compound in PBS buffer at pH 7.4 by LC-UV spectroscopic analysis; format: physicochemical
Mus musculus [17] = assay: Cmax in CD-1 mouse at 3 mg/kg, iv; format: ADME, organism-based; set-up: dose 3 mg/kg, route intravenous; settings: in vivo

For `O=S(=O)(Nc1nc2ccccc2s1)c1ccc(NCc2cccc(Cl)c2O)cc1`, which IC50 [1] is on record?
The IC50 was 1.3 µM.

And the Stability (Rattus norvegicus)?
Its Stability is “Unstable”.

For `COc1cccc(CNc2ccc(S(=O)(=O)Nc3nc4ccccc4[nH]3)cc2)c1O`, which inhibition [2] is on record?
The inhibition was “inactive”.

Which IC50 [3] does the source give for `O=S(=O)(Nc1nccs1)c1ccc(NCc2ccccc2O)cc1` here?
The IC50 was over 40 µM.

With `O=S(=O)(Nc1nccs1)c1ccc(NCc2ccccc2)cc1` as the molecule, how does the IC50 [3] read?
The IC50 was over 40 µM.

Which results are given for `COc1cccc(CNc2ccc(S(=O)(=O)Nc3nc4ccccc4o3)cc2)c1O`?
inhibition [4]: Active; inhibition [2]: inactive; remaining at 48 h [5]: 100%; Stability (Liver microsome): Stable; Stability [6]: Stable; remaining at 2 h [7]: 100%; solubility [8]: soluble

For `O=S(=O)(Nc1nccs1)c1ccc(NCc2cccc(O)c2)cc1`, which IC50 [3] is on record?
The IC50 was over 40 µM.

With `Nc1ccccc1CNc1ccc(S(=O)(=O)Nc2nccs2)cc1` as the molecule, how does the IC50 [3] read?
Its IC50 is over 40 µM.

What does the source list for `COc1cccc(CNc2ccc(S(=O)(=O)Nc3nc4ccccc4s3)cc2)c1O` [VLX-1005]?
Stability [9]: Stable; Stability [10]: Stable; inhibition [2]: inactive; Cmax (Mus musculus [11]): 38 µM; Stability (Liver microsome): Stable; Stability [6]: Stable; AUC (Mus musculus [12]): 34 µM·h; Stability [13]: Stable; solubility [8]: soluble; AUC (Mus musculus [14]): 67 µM·h; Vd (Mus musculus [15]): 0.55 L/kg; solubility [16]: < 5 µg/mL; Cmax (Mus musculus [17]): 112 µM
